Like-named read-outs stand apart in the source and are kept apart here. Starred links: 1 amine or outer side, 2 acyl side, 3 side chain; linkers in the order of their positions; H or OH if unused. Non-standard residues stand in square brackets, D forms with d. Residues, ends and D or L forms follow the SMILES beside them. Dolaproine = CO[C@@H]([C@@H]1CCCN1)[C@@H](C)C(=O)O; Dil = CC[C@H](C)[C@H](NC)[C@@H](CC(=O)O)OC; X7 = C[C@@]1(C(=O)[*:2])CCCCN1[*:1]; dαMePip = C[C@]1(C(=O)O)CCCCN1
Columns and labels:
Assay in all cases: In vitro cell assay, MTS cell viability 96 hours after treatment
Format in all cases: cell-based
BT474 (breast cancer) = details: geometric mean, cytotoxic peptides, read-out: BT474 GMEAN IC50
Outline: (§1)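 Antibody-drug conjugates or free (unconjugated) compounds were applied in duplicate at 10 concentrations from 3-fold serial dilutions. Viability was measured by MTS assay and expressed as percentage of untreated control.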

[1] = tested on: MDA-MB-361-DYT2 (breast cancer); details: read-out: MDA-MB-361-DYT2 GMEAN IC50, MDA-MB-361-DYT2 cells; geometric mean; cytotoxic peptides
Outline: as §1

N87 (gastric cancer) = details: read-out: N87 GMEAN IC50, N87 cells; geometric mean; cytotoxic peptides
Outline: as §1

[2] = Homo sapiens, BT-474, BT474 cells

| SMILES | IC50 (BT474 (breast cancer); [2]) [pM] | IC50 [1] [pM] | IC50 (N87 (gastric cancer)) [pM] | IC50 (BT474 (breast cancer); BT474 cells) [pM] |
| --- | --- | --- | --- | --- |
| CC[C@H](C)[C@@H]([C@@H](CC(=O)N1CCC[C@H]1[C@H](OC)[C@@H](C)C(=O)N[C@@H](Cc1ccccc1)c1nccs1)OC)N(C)C(=O)[C@@H](NC(=O)C(C)(C)CNC)C(C)C [#154, N˜2˜-[2,2-dimethyl-3-(methylamino)propanoyl]-N-{(1S,2R)-2-methoxy-4-{(2S)-2-[(1R,2R)-1-methoxy-2-methyl-3-oxo-3-{[(1S)-2-phenyl-1-(1,3-thiazol-2-yl)ethyl]amino}propyl]pyrrolidin-1-yl}-1-[(1S)-1-methylpropyl]-4-oxobutyl}-N-methyl-L-valinamide] | 193 | 198 | 572 |  |
| CC[C@H](C)[C@@H]([C@@H](CC(=O)N1CCC[C@H]1[C@H](OC)[C@@H](C)C(=O)N[C@@H](Cc1ccccc1)C(=O)OC)OC)N(C)C(=O)[C@@H](NC(=O)C(C)(C)CNC)C(C)C [#155, methyl N-{(2R,3R)-3-[(2S)-1-{(3R,4S,5S)-4-[{N-[2,2-dimethyl-3-(methylamino)propanoyl]-L-valyl}(methyl)amino]-3-methoxy-5-methylheptanoyl}pyrrolidin-2-yl]-3-methoxy-2-methylpropanoyl}-L-phenylalaninate] | 323 | 318 | 875 |  |
| CC[C@H](C)[C@@H]([C@@H](CC(=O)N1CCC[C@H]1[C@H](OC)[C@@H](C)C(=O)N[C@@H](Cc1ccccc1)C(=O)O)OC)N(C)C(=O)[C@@H](NC(=O)[C@]1(C)CCCCN1)C(C)C [#162, N-{(2R,3R)-3-methoxy-3-[(2S)-1-{(3R,4S,5S)-3-methoxy-5-methyl-4-[methyl(N-{[(2S)-2-methylpiperidin-2-yl]carbonyl}-L-valyl)amino]heptanoyl}pyrrolidin-2-yl]-2-methylpropanoyl}-L-phenylalanine] (H-[X7]V[Dil][Dolaproine]F-OH) | 31400 | 27800 | 21600 |  |
| CC[C@H](C)[C@@H]([C@@H](CC(=O)N1CCC[C@H]1[C@H](OC)[C@@H](C)C(=O)N[C@@H](Cc1ccccc1)C(=O)O)OC)N(C)C(=O)[C@@H](NC(=O)[C@@]1(C)CCCCN1)C(C)C [#163, N-{(2R,3R)-3-methoxy-3-[(2S)-1-{(3R,4S,5S)-3-methoxy-5-methyl-4-[methyl(N-{[(2R)-2-methylpiperidin-2-yl]carbonyl}-L-valyl)amino]heptanoyl}pyrrolidin-2-yl]-2-methylpropanoyl}-L-phenylalanine] (H-[dαMePip]V[Dil][Dolaproine]F-OH) | ≥ 100000 | 99400 | 72700 |  |
| CC[C@H](C)[C@@H]([C@@H](CC(=O)N1CCC[C@H]1[C@H](OC)[C@@H](C)C(=O)N[C@@H](Cc1ccccc1)C(=O)OC)OC)N(C)C(=O)[C@@H](NC(=O)[C@@]1(F)CCNC1)C(C)C [#172, methyl N-{(2R,3R)-3-[(2S)-1-{(3R,4S,5S)-4-[(N-{[(3R)-3-fluoropyrrolidin-3-yl]carbonyl}-L-valyl)(methyl)amino]-3-methoxy-5-methylheptanoyl}pyrrolidin-2-yl]-3-methoxy-2-methylpropanoyl}-L-phenylalaninate] | 57 | 86 | 144 |  |
| CC[C@H](C)[C@@H]([C@@H](CC(=O)N1CCC[C@H]1[C@H](OC)[C@@H](C)C(=O)N[C@@H](Cc1ccccc1)C(=O)OC)OC)N(C)C(=O)[C@@H](NC(=O)[C@@]1(F)CCNC1)C(C)C [#173, methyl N-{(2R,3R)-3-[(2S)-1-{(3R,4S,5S)-4-[(N-{[(3R)-3-fluoropyrrolidin-3-yl]carbonyl}-L-valyl)(methyl)amino]-3-methoxy-5-methylheptanoyl}pyrrolidin-2-yl]-3-methoxy-2-methylpropanoyl}-L-phenylalaninate] |  | 67 | 99 | 88 |
